In data set [1] the target is T1, Amine oxidase [flavin-containing] B (Homo sapiens, UniProt P27338).
T1 sequence (P27338 whole entry): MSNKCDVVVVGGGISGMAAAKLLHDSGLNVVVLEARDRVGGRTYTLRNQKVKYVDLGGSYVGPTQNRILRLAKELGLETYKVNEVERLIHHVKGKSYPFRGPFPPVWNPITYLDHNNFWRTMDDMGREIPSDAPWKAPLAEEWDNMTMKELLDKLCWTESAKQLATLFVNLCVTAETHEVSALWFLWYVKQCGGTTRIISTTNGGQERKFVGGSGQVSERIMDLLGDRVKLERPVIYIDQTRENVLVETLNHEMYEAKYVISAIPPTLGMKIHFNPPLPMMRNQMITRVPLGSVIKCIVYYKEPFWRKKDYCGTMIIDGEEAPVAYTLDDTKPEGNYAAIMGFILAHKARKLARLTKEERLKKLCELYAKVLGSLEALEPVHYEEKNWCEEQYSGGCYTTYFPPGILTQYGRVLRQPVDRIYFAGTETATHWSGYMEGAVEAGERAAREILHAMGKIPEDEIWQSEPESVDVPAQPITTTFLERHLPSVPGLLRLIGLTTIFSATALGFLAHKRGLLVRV
The data set can be described thus: Inhibition of human recombinant MAOB assessed as reduction in H2O2 production from p-tyramine incubated for 15 mins by Amplex red reagent based fluorimetric method.

Data set [2] concerns the target T2, Amine oxidase [flavin-containing] A (Homo sapiens, UniProt P21397).
T2 sequence (P21397 whole entry): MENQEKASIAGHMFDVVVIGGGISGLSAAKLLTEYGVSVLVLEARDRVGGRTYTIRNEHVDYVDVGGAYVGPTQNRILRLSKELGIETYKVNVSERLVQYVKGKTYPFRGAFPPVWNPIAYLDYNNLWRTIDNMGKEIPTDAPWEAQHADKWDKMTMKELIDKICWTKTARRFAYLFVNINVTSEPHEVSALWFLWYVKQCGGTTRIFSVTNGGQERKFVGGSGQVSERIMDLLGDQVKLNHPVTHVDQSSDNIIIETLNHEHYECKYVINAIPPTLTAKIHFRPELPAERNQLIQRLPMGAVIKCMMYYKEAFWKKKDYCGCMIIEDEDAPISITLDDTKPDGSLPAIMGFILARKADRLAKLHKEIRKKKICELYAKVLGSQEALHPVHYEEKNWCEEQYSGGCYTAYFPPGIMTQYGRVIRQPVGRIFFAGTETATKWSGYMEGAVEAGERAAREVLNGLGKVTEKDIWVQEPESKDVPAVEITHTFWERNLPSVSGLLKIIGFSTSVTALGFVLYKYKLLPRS
Nature of the data set: Inhibition of human recombinant MAOA assessed as reduction in H2O2 production from p-tyramine at 100 uM incubated for 15 mins by Amplex red reagent based fluorimetric method. The note with it: 0.25 h.

Data set [3] is filed under the species Homo sapiens. The data set can be described thus: Selectivity index, ratio of IC50 for human recombinant MAOA to IC50 for human recombinant MAOB.

A value given as a limit tells only on which side of the number the result lay.

The IC50 is the midpoint of a concentration-inhibition curve. Consider `COc1c(OC/C=C(\C)C[C@@H]2C=C(CCC(N)=O)C(=O)O2)ccc2ccc(=O)oc12`, for which the IC50 in data set [1] came out at 0.144 µM. Moreover, the “inhibition (INH)” value in data set [2] is listed as “Not Active”. Moreover, the Ratio IC50 in data set [3] is over 696.

The record behind these values is ChEMBL document CHEMBL4043085, “Anisucoumaramide, a Bioactive Coumarin from Clausena anisum-olens” (J Nat Prod, 2017).
